From PMC7404270, “Biological Activities of Cyclic and Acyclic B-Type Laxaphycins in SH-SY5Y Human Neuroblastoma Cells” (Marine Drugs, 2020)

Columns and labels:
AMPK = assay: Western blot, AMPK activation (phosphorylated/total); format: cell-based, human; conditions: SH-SY5Y cells, 24 h; Comp C 1 µM
Experimental: (§1) SH-SY5Y cells were seeded in 12-well plates and treated with laxaphycins for 24 h. Next, cells were washed with PBS and lysis buffer (50mM Tris HCl, 150 mM NaCl, 1mM EDTA and 1% Triton x-100, supplemented with a complete phosphatase/protease inhibitor cocktail) was added to each well. Cells were scrapped, sonicated and centrifuged at 13,000 rpm at 4 °C for 20 min.
(§2) In both cases, the supernatant was collected as the cytosolic fraction and quantified with the Bradford method. Samples containing 15 µg were used for electrophoresis, resolved in 4–20% sodium dodecyl sulphate polyacrylamide gel (Biorad, Madrid, Spain). Proteins were transferred to PVDF membranes (Merck Millipore) with a Trans-Blot® semi-dry transfer cell (Biorad). Membrane blocking and antibody incubation was performed in Snap i.d. system (Merck Millipore). Protein bands were detected with Supersignal West Pico Luminiscent Substrate and Supersignal West Femto Maximum Sensitivity Substrate (Thermo Fisher Scientific). Chemiluminiscence was determined with Diversity GeneSnap system and software (Syngene). […]

beclin 1 = assay: Western blot, beclin 1 expression; format: cell-based, human; conditions: SH-SY5Y cells, 24 h; Rap 0.1 µM
Experimental: as §1
(§3) In both cases, the supernatant was collected as the cytosolic fraction and quantified with the Bradford method. Samples containing 15 µg were used for electrophoresis, resolved in 4–20% sodium dodecyl sulphate polyacrylamide gel (Biorad, Madrid, Spain). Proteins were transferred to PVDF membranes (Merck Millipore) with a Trans-Blot® semi-dry transfer cell (Biorad). Membrane blocking and antibody incubation was performed in Snap i.d. system (Merck Millipore). Protein bands were detected with Supersignal West Pico Luminiscent Substrate and Supersignal West Femto Maximum Sensitivity Substrate (Thermo Fisher Scientific). Chemiluminiscence was determined with Diversity GeneSnap system and software (Syngene). LC3 II/I was detected with the primary antibody anti-LC3 II/I (1:1000, Abcam), the primary antibody anti-pmTOR (Ser2448) (1:1000, Merck Millipore) was used to recognize phospho-mTOR and the total levels of the kinase were determined with anti-mTOR antibody (1:10000, Abcam), beclin-1 was detected with anti-beclin-1 primary antibody (1:1000, Merck Millipore), p62 was quantified with anti-p62 antibody (1:1000, Merck Millipore), anti-phospho-p70 S6 kinase (Thr389) (1:1000, Merck Millipore) was used to detect phospho- p70 and the total levels were quantified using anti-p70 S6 kinase antibody (1:1000, Merck Millipore), anti-phospho-AMPK (Thr172) (1:500, Merck Millipore) was used to recognize the phosphorylated state of the kinase, and the total expression of the enzyme was detected with anti-AMPK antibody (1:500, Merck Millipore). Protein levels were normalized using β-Actin (1:20,000, Millipore). Baf A1 (0.001 µM), Rap (0.1 µM) and Comp C (1 µM) were used as controls for autophagic flux measurements. All the experiments were performed at least three times in duplicate.

[1] = tested on: SH-SY5Y human neuroblastoma cells; assay: Reactive oxygen species levels (carboxy-H2DCFDA); format: cell-based; conditions: 24 h, 0.001–10 µM
Experimental: ROS production was assessed with the fluorescence dye carboxy-H2DCFDA (5-(and-6)-carboxy-2′,7′-dichlorodihydrofluorescein diacetate). SH-SY5Y cells were seeded in 96-well plates and allowed to grow for 24 h. Then, cells were treated with laxaphycins (0.001–10 µM) for 24 h and ROS levels were measured. SH-SY5Y cells were washed twice with serum-free medium and loaded with 20 µM carboxy-H2DCFDA. Next, the plate was incubated for 1 h at 37 °C. After this time, phosphate buffered saline (PBS) was added to each well during 30 min. The fluorescence was read at 495 nm excitation and 527 nm emission. Experiments were carried out at least three times.

[2] = tested on: SH-SY5Y human neuroblastoma cells; assay: Mitochondrial membrane potential (TMRM dye); format: cell-based; conditions: 24 h, 0.001–10 µM
Experimental: ∆Ψm was evaluated with TMRM assay as previously described. SH-SY5Y cells were seeded in 96-well plates at 5 × 10^4 cells per well. After 24 h, cells were treated with compounds (0.001–10 µM) for 24 h. Next, cells were washed twice with saline solution and incubated with 1 µM TMRM for 30 min. Then human neuroblastoma cells were solubilized with 50% DMSO–50% water. Fluorescence values were measured at 535 nm excitation, 590 nm emission with a plate reader. At least three independent replicates were performed in triplicate.

[3] = tested on: SH-SY5Y human neuroblastoma cells; assay: MTT cell metabolic activity assay; format: cell-based; conditions: 24 h, 0.001–10 µM
Experimental: (§4) SH-SY5Y human neuroblastoma cell line was obtained from American Type Culture Collection (ATCC), number CRL2266. Cells were cultured in Dulbecco´s modified Eagle´s medium: Nutrient Mix F-12 (DMEM/F-12) with 10% fetal bovine serum (FBS), 1% glutamax, 100 U/mL penicillin and 100 µg/mL streptomycin. Cells were maintained at 37 °C in a humidified atmosphere of 5% CO2 and 95% air and dissociated weekly using 0.05% trypsin/EDTA. All the reagents were obtained from Thermo Fischer Scientific.
The effect of laxaphycins on cell metabolic activity was evaluated by MTT (3-(4, 5-dimethyl thiazol-2-yl)-2, 5-diphenyl tetrazolium bromide) assay. SH-SY5Y cells were cultured in 96-well plates and treated with compounds at concentrations ranging from 0.001 to 10 µM for 24 h. Next, cells were rinsed three times and incubated for 1 h with MTT (500 µg/mL) dissolved in saline buffer. MTT excess was washed and cells were disaggregated with 5% sodium dodecyl sulfate. Absorbance of the colored formazan salt was measured at 595 nm in a spectrophotometer plate reader. Cell death control signal was subtracted from the other data.

[4] = tested on: SH-SY5Y human neuroblastoma cells; assay: LDH cytotoxicity assay (cell viability); format: cell-based; conditions: 24 h, 0.001–10 µM
Experimental: as §4
Cell viability was assessed with the LDH test. Cells were seeded in 96-well plates and exposed to different compound concentrations (0.001–10 µM). Cells were incubated with compounds at 37 °C in humidified 5% CO2/95% air atmosphere for 24 h. Quillaja bark saponin was used as cellular death control. Then, cell medium was collected and LDH release was evaluated. Pierce^TM LDH-Cytotoxicity Assay Kit (Thermo Fisher Scientific) was used for LDH determination. Absorbance was measured at 490 nm to determine LDH release to the medium. Experiments were carried out in triplicate at least three independent times.

[5] = tested on: SH-SY5Y human neuroblastoma cells; assay: ATP levels (Luminescent ATP Detection Kit); format: cell-based; conditions: 0.001–10 µM; for ATP levels at 6 h, in words: 6 h incubation; for ATP levels at 24 h, in words: 24 h incubation
Experimental: ATP levels were determined with the Luminescent ATP Detection Kit (Abcam), following manufacturer´s instructions. Briefly, human neuroblastoma cells were cultured in 96-well plates at 5 × 10^4 cells per well. Cells were treated with compounds as described above during 6 and 24 h, Then, cells were lysed and 50 µL of substrate solution were added to each well. The plate was incubated for 5 min, and the luminescence was measured in a plate reader. Rot at 1 µM was used as positive control.

LC3 = assay: Western blot, LC3II/I ratio; format: cell-based, human; conditions: SH-SY5Y cells, 24 h; Baf A1 0.001 µM, Rap 0.1 µM
Experimental: as §1, §2

mTOR = assay: Western blot, mTOR activation (phosphorylated/total); format: cell-based, human; conditions: SH-SY5Y cells, 24 h; Rap 0.1 µM
Experimental: as §1
as §3, with “All the experiments were performed at least three times in duplicate.” left out

caspase 3 = assay: Caspase 3 activity in cell lysates (EnzCheck kit); format: cell-based, human; conditions: SH-SY5Y cells, 24 h; STS 0.01 µM; percentage of control cells, mean ± SEM
Experimental: The detection of caspase 3 activity was carried out with the EnzCheck® Caspase-3 Assay Kit. Neuroblastoma cells were cultured in 12-well plates at 1 × 10^6 cells per well and treated with compounds. After 24 h, cells were lysed and an aliquot was collected to quantify protein concentration by the Bradford method. Then, the assay was performed following manufacturer’s instructions. Briefly, 50 µL of each sample were mixed with equal volume of Z-DEVD-AMC substrate and incubated for 30 min at room temperature. Then, fluorescence at 342 nm excitation and 441 nm emission was measured. Caspase 3 activity data were corrected by protein concentration values. STS (0.01 µM) was used as positive control.

[6] = tested on: SH-SY5Y human neuroblastoma cells; assay: Annexin V-FITC / propidium iodide flow cytometry; format: cell-based; conditions: 24 h, 1 at 0.3 µM, 2 at 0.15 µM, STS at 0.01 µM, percentage of total cells, mean ± SEM of three experiments
Experimental: The Annexin V-FITC Apoptosis Detection Kit was used to determine the cell death produced by compounds as previously described. SH-SY5Y cells were seeded in 12-well plates at 1 × 10^6 per well and incubated for 24 h with laxaphycins. Then, cells were washed with PBS and resuspended in Annexin binding buffer containing Annexin V-FITC and PI. Cells were incubated for 15 min at room temperature, resuspended in PBS and filtered. The fluorescence was determined by flow cytometry using the ImageStreamMKII (Amnis Corporation, Luminex Corp, Austin, TX, USA). 10,000 events were analyzed with IDEAS Application 6.0 software (Amnis Corporation, Luminex Corp, Austin, TX, USA). STS (Sigma Aldrich) at 0.01 µM was used as control in this assay.

p70 S6 kinase = assay: Western blot, p70 S6 kinase activation (phosphorylated/total); format: cell-based, human; conditions: SH-SY5Y cells, 24 h; one range given for the three compounds together
Experimental: as §1
as §3, with “All the experiments were performed at least three times in duplicate.” left out

Compound: c1cc(-c2cnn3cc(-c4ccc(OCCN5CCCCC5)cc4)cnc23)ccn1 [Comp C, compound C, reference compound]
- AMPK activation (phospho/total), in words (AMPK): inhibited kinase activity

Compound: [des-(Ala^4-Hle^5)] acyclolaxaphycin B [compound 5]
- Beclin 1 expression, in words (beclin 1): generated an increase in beclin1 expression
- ROS levels (carboxy-H2DCFDA), in words [1]: reduced ROS levels at the highest concentrations
- Mitochondrial membrane potential (∆Ψm, TMRM), in words [2]: depolarized the mitochondria
- Cell metabolic activity (MTT), in words [3]: increased cell metabolic activity
- Cytotoxicity / cell viability (LDH test), in words [4]: did not show effects on cell survival
- ATP levels at 6 h, in words [5]: levels were reduced by 5 after a 6 h incubation
- ATP levels at 24 h, in words [5]: recovered at 24 h

Compound: CO[C@H]1C[C@@H]2CC[C@@H](C)[C@@](O)(O2)C(=O)C(=O)N2CCCC[C@H]2C(=O)O[C@H]([C@H](C)C[C@@H]2CC[C@@H](O)[C@H](OC)C2)CC(=O)[C@H](C)/C=C(\C)[C@@H](O)[C@@H](OC)C(=O)[C@H](C)C[C@H](C)/C=C/C=C/C=C/1C [Rap, rapamycin, reference compound]
- Beclin 1 expression, in words (beclin 1): augmented its expression
- LC3II/I ratio, in words (LC3): increased LC3II/I ratio
- mTOR activation (phospho/total), in words (mTOR): reduced mTOR activation

Compound: CN[C@@H]1C[C@H]2O[C@@](C)([C@@H]1OC)n1c3ccccc3c3c4c(c5c6ccccc6n2c5c31)C(=O)NC4 [STS, staurosporine, reference compound]
- Caspase 3 activity (caspase 3): 157.8% ± 6%
- Apoptotic cells (early and late, Annexin V positive) [6]: 63.3% ± 3.2%

Compound: acyclolaxaphycin B3 [compound 4]
- Beclin 1 expression, in words (beclin 1): generated an increase in beclin1 expression
- ROS levels (carboxy-H2DCFDA), in words [1]: diminishing ROS release
- Mitochondrial membrane potential (∆Ψm, TMRM), in words [2]: depolarizing the mitochondrial membrane at 10 µM
- p70 S6 phosphorylation (p70 S6 kinase): 53.5%–78.6%
- Cytotoxicity / cell viability (LDH test), in words [4]: did not display cytotoxicity at any of the concentrations tested
- ATP levels at 6 h, in words [5]: diminishing ROS release and ATP levels at 6 h

Compound: [des-(Ala^4-Hle^5)] acyclolaxaphycin B3 [compound 6]
- AMPK activation (phospho/total), in words (AMPK): the most active
- Beclin 1 expression, in words (beclin 1): generated an increase in beclin1 expression
- ROS levels (carboxy-H2DCFDA), in words [1]: decreased ROS release
- p70 S6 phosphorylation (p70 S6 kinase): 53.5%–78.6%
- Cytotoxicity / cell viability (LDH test), in words [4]: did not show effects on cell survival
- ATP levels at 6 h, in words [5]: reduced ATP content at 6 h
- ATP levels at 24 h, in words [5]: recovering it after 24 h

Compound: acyclolaxaphycin B [compound 3]
- Beclin 1 expression, in words (beclin 1): generated an increase in beclin1 expression
- ROS levels (carboxy-H2DCFDA), in words [1]: reduced ROS and ATP levels at the highest concentrations
- Mitochondrial membrane potential (∆Ψm, TMRM), in words [2]: produced a decrease in ∆Ψm
- Cell metabolic activity (MTT), in words [3]: significantly augmented cell metabolic activity at 0.1 and 1 µM
- Cytotoxicity / cell viability (LDH test), in words [4]: did not display cytotoxicity at any of the concentrations tested
- ATP levels at 6 h, in words [5]: reduction in ATP was observed at 6 h
- ATP levels at 24 h, in words [5]: recovered at 24 h, reaching levels of control cells

Compound: CO/C1=C\C(C)=C\[C@@H](C)[C@@H](O)[C@@H](C)C/C(C)=C/C=C/[C@H](OC)[C@@H]([C@@H](C)[C@@H](O)[C@H](C)[C@@]2(O)C[C@@H](O)[C@H](C)[C@@H](C(C)C)O2)OC1=O [Baf A1, Bafilomycin A1]
- LC3II/I ratio, in words (LC3): increased LC3II/I ratio
